Strand notation (5' to 3'): a small letter for the sugar, then the base; units joined by * are phosphorothioate-linked, units joined directly phosphodiester-linked; [ ] holds rarer units or linkages, { } end groups; capitals alone tell only the bases. k = constrained ethyl (cEt); [5mC] = 5-methylcytosine; d = 2'-deoxy (DNA)
System: Yap1 mRNA
Assay: Antisense inhibition of human Yap1 in A-431 cells by cEt gapmers, single dose (Example 1, RTS4814)
Assay type: cell-based
Details: A-431 cells, 5,000 cells per well, free uptake, 2,000 nM modified oligonucleotide, approx. 48 hours, RTS4814, normalized to RIBOGREEN; Table 3
In short: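 Free uptake of 2,000 nM 3-10-3 cEt gapmer (16-mer, full phosphorothioate, 5-methylcytosines) in A-431 cells for ~48 h. Yap1 mRNA quantified by qRT-PCR with set RTS4814, normalized to total RNA (RiboGreen), and expressed as % of untreated control; asterisked values target the amplicon region.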

Substance | YAP1 (% UTC)
715495 (antisense kA*k[5mC]*kA*dG*dA*dG*dG*dT*dG*d[5mC]*dT*dA*dG*k[5mC]*kT*kG) [Compound 715495] | 80 % UTC
715456 (antisense kA*kG*kT*dG*dA*dT*dA*dG*dG*dT*dG*d[5mC]*d[5mC]*kA*k[5mC]*kT) [Compound 715456] | 96 % UTC
715537 (kA*k[5mC]*kT*dT*dG*dG*d[5mC]*dA*d[5mC]*d[5mC]*dA*dA*dA*kA*kG*k[5mC]; antisense) [Compound 715537] | 122 % UTC
715564 (k[5mC]*kA*kA*dG*d[5mC]*dA*d[5mC]*dA*d[5mC]*dA*dA*d[5mC]*dT*k[5mC]*kA*kG; antisense) [Compound 715564] | 75 % UTC
715447 (antisense k[5mC]*kA*kA*dT*dT*d[5mC]*d[5mC]*dT*dG*dA*dG*dA*d[5mC]*kA*kT*k[5mC]) [Compound 715447] | 81 % UTC
715411 (kG*k[5mC]*kA*dT*d[5mC]*dA*dG*dT*dA*d[5mC]*dT*dG*dG*k[5mC]*k[5mC]*kT; antisense) [Compound 715411] | 94 % UTC
715477 (antisense kA*kG*kA*d[5mC]*dA*d[5mC]*dA*dT*dA*d[5mC]*dT*d[5mC]*dT*kA*kG*kT) [Compound 715477] | 61 % UTC
715561 (k[5mC]*kA*k[5mC]*dA*dA*d[5mC]*dT*d[5mC]*dA*dG*dA*d[5mC]*dA*kG*kG*kG; antisense) [Compound 715561] | 69 % UTC
715549 (kG*kA*kA*dG*dT*dT*dG*dT*dT*dG*dA*d[5mC]*d[5mC]*kA*kA*k[5mC]; antisense) [Compound 715549] | 66 % UTC
715513 (kG*k[5mC]*kG*dG*dA*dG*dG*d[5mC]*dG*d[5mC]*dG*d[5mC]*dG*k[5mC]*kA*kT; antisense) [Compound 715513] | 125 % UTC
715498 (antisense kT*kG*kA*dA*d[5mC]*d[5mC]*d[5mC]*dT*dT*dG*dA*dA*dA*kA*kT*kA) [Compound 715498] | 91 % UTC
715576 (kA*kA*k[5mC]*d[5mC]*dT*dT*dT*dA*d[5mC]*d[5mC]*dA*dA*dA*kA*k[5mC]*kG; antisense) [Compound 715576] | 80 % UTC
715558 (k[5mC]*kA*kG*dG*dA*dA*dG*dT*dT*dA*dT*dT*d[5mC]*kA*kG*k[5mC]; antisense) [Compound 715558] | 37 % UTC

Same assay, conditions: Table 1; A-431 cells, free uptake, 2,000 nM, approximately 48 hours, RTS4814; Yap1 mRNA relative to untreated control cells

Substance | YAP1 (% UTC)
715586 (kA*kA*kA*dA*dG*dG*dT*d[5mC]*dT*dG*dG*dA*dA*k[5mC]*kA*kG; antisense) [Compound 715586] | 53 % UTC
715550 (kA*kG*kG*dA*dA*dG*dT*dT*dG*dT*dT*dG*dA*k[5mC]*k[5mC]*kA; antisense) [Compound 715550] | 70 % UTC
715592 (kT*kT*k[5mC]*dT*dT*dT*dG*dG*d[5mC]*dA*dG*dA*dG*kA*kT*kA; antisense) [Compound 715592] | 89 % UTC
715433 (antisense kT*kG*kT*dT*d[5mC]*dT*dT*dA*dT*dG*dG*dT*dT*kT*kA*kT) [Compound 715433] | 36 % UTC
715442 (antisense k[5mC]*kA*k[5mC]*dT*dG*dG*dA*dG*d[5mC]*dA*d[5mC]*dT*d[5mC]*kT*kG*kA) [Compound 715442] | 64 % UTC
715499 (antisense kT*kA*kT*dG*dA*dA*d[5mC]*d[5mC]*d[5mC]*dT*dT*dG*dA*kA*kA*kA) [Compound 715499] | 126 % UTC
715553 (kA*kG*kA*dA*dA*dT*dA*dG*dG*dA*dA*dG*dT*kT*kG*kT; antisense) [Compound 715553] | 90 % UTC
715544 (k[5mC]*kA*kA*d[5mC]*dT*dA*d[5mC]*dT*dT*dG*dA*dA*dG*kA*kA*k[5mC]; antisense) [Compound 715544] | 128 % UTC
715451 (antisense k[5mC]*kA*kT*dT*dG*dT*dT*d[5mC]*dT*d[5mC]*dA*dA*dT*kT*k[5mC]*k[5mC]) [Compound 715451] | 75 % UTC
715490 (antisense k[5mC]*k[5mC]*kA*dA*d[5mC]*dT*dA*dT*dT*dA*d[5mC]*dT*dT*k[5mC]*kA*kT) [Compound 715490] | 38 % UTC
715529 (kT*kG*kA*dA*dA*d[5mC]*d[5mC]*dT*dG*dA*dT*d[5mC]*d[5mC]*kT*kT*kT; antisense) [Compound 715529] | 148 % UTC
715619 (antisense kA*kA*kA*dT*dA*dA*dG*dA*d[5mC]*dG*dG*dA*dT*kA*kA*kA) [Compound 715619] | 114 % UTC
715460 (antisense kA*kT*k[5mC]*dT*d[5mC]*dG*dA*dG*dA*dG*dT*dG*dA*kT*kA*kG) [Compound 715460] | 114 % UTC
715400 (k[5mC]*kT*k[5mC]*d[5mC]*dG*dA*dG*dT*d[5mC]*d[5mC]*d[5mC]*d[5mC]*dG*k[5mC]*kG*kG; antisense) [Compound 715400] | 107 % UTC
715598 (antisense k[5mC]*k[5mC]*k[5mC]*dA*dA*dG*d[5mC]*dT*dA*d[5mC]*d[5mC]*d[5mC]*dA*kA*kG*kA) [Compound 715598] | 103 % UTC

Same assay, conditions: Table 2; A-431 cells, free uptake, 2,000 nM, approximately 48 hours, RTS4814; Yap1 mRNA relative to untreated control cells

Substance | YAP1 (% UTC)
715470 (antisense kT*k[5mC]*kT*dA*dG*d[5mC]*dT*dT*dG*dG*dT*dG*dG*k[5mC]*kA*kG) [Compound 715470] | 83 % UTC
715530 (kA*kA*k[5mC]*d[5mC]*dT*dG*dG*dT*dT*dT*dG*dT*dT*kT*k[5mC]*k[5mC]; antisense) [Compound 715530] | 61 % UTC
715419 (kG*kA*k[5mC]*d[5mC]*dA*dG*dA*dA*dG*dA*dT*dG*dT*k[5mC]*kT*kT; antisense) [Compound 715419] | 107 % UTC
715458 (antisense k[5mC]*kG*kA*dG*dA*dG*dT*dG*dA*dT*dA*dG*dG*kT*kG*k[5mC]) [Compound 715458] | 58 % UTC
715605 (antisense k[5mC]*kA*kT*dA*dG*d[5mC]*dA*d[5mC]*dA*dG*dA*dA*dT*kT*k[5mC]*k[5mC]) [Compound 715605] | 112 % UTC
715497 (antisense kA*kA*k[5mC]*d[5mC]*d[5mC]*dT*dT*dG*dA*dA*dA*dA*dT*kA*kA*kG) [Compound 715497] | 155 % UTC
715404 (kA*kA*kG*dA*dA*dG*dG*dA*dG*dT*d[5mC]*dG*dG*kG*k[5mC]*kA; antisense) [Compound 715404] | 64 % UTC
715521 (kT*k[5mC]*kT*dT*d[5mC]*dT*dT*dT*d[5mC]*d[5mC]*dA*d[5mC]*dT*k[5mC]*kA*kA; antisense) [Compound 715521] | 72 % UTC
715443 (antisense kT*kT*k[5mC]*dA*d[5mC]*dT*dG*dG*dA*dG*d[5mC]*dA*d[5mC]*kT*k[5mC]*kT) [Compound 715443] | 40 % UTC
715587 (kT*kG*kA*dA*dA*dA*dG*dG*dT*d[5mC]*dT*dG*dG*kA*kA*k[5mC]; antisense) [Compound 715587] | 79 % UTC
715539 (kA*kG*kA*dT*d[5mC]*dT*d[5mC]*dA*d[5mC]*dT*dG*dA*d[5mC]*k[5mC]*kT*kA; antisense) [Compound 715539] | 102 % UTC
715410 (kA*kT*k[5mC]*dA*dG*dT*dA*d[5mC]*dT*dG*dG*d[5mC]*d[5mC]*kT*kG*kT; antisense) [Compound 715410] | 61 % UTC
715524 (kA*k[5mC]*kT*dT*dT*dA*dA*dG*dA*dA*dG*dT*dA*kT*k[5mC]*kT; antisense) [Compound 715524] | 93 % UTC
715611 (antisense k[5mC]*kT*kT*dT*dA*dA*dG*d[5mC]*d[5mC]*dA*d[5mC]*dA*dT*kG*kG*kT) [Compound 715611] | 106 % UTC
715455 (antisense kT*kG*kA*dT*dA*dG*dG*dT*dG*d[5mC]*d[5mC]*dA*d[5mC]*kT*kG*kT) [Compound 715455] | 65 % UTC
715482 (antisense k[5mC]*kT*kT*dT*dG*dG*dA*dA*dA*d[5mC]*d[5mC]*dA*dT*kT*kA*kT) [Compound 715482] | 58 % UTC
715608 (antisense kA*kA*kT*dT*dG*dT*dA*dT*d[5mC]*d[5mC]*dA*dG*dA*k[5mC]*kA*kT) [Compound 715608] | 100 % UTC
715476 (antisense kA*kA*kA*dG*d[5mC]*dT*dT*dT*d[5mC]*dT*dT*dT*dA*kT*k[5mC]*kT) [Compound 715476] | 84 % UTC
715425 (kG*kT*k[5mC]*d[5mC]*dT*dG*d[5mC]*d[5mC]*dA*dT*dG*dT*dT*kG*kT*kT; antisense) [Compound 715425] | 98 % UTC
715440 (antisense k[5mC]*kT*kG*dG*dT*dT*d[5mC]*dA*dT*dG*dG*d[5mC]*dA*kA*kA*kA) [Compound 715440] | 85 % UTC
715509 (antisense kT*kG*k[5mC]*dT*dG*dT*dG*d[5mC]*dT*dG*dG*dG*dA*kT*kT*kG) [Compound 715509] | 42 % UTC
715533 (k[5mC]*k[5mC]*kT*dA*dA*d[5mC]*dA*dA*d[5mC]*d[5mC]*dT*dG*dG*kT*kT*kT; antisense) [Compound 715533] | 97 % UTC
715500 (antisense kA*kA*kG*d[5mC]*d[5mC]*dT*dT*dA*dG*dA*dG*dT*d[5mC]*kA*kA*kT) [Compound 715500] | 30 % UTC
715449 (antisense kT*kT*k[5mC]*dT*d[5mC]*dA*dA*dT*dT*d[5mC]*d[5mC]*dT*dG*kA*kG*kA) [Compound 715449] | 124 % UTC
715503 (antisense k[5mC]*k[5mC]*k[5mC]*d[5mC]*dA*dG*dA*d[5mC]*dT*dT*dA*dA*dT*kT*k[5mC]*kA) [Compound 715503] | 136 % UTC
